# Columns and labels:
# Assay in all cases: KINOMEscan kinase binding assay
# [1] = system: ABL1(T315I)-phosphorylated; conditions: at 1 μM
# Procedure, shortened: (§1)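 Immobilized-ligand competition, qPCR-quantified. Kinase sources: T7 phage lysates from BL21-type E. coli, or HEK-293 expression plus DNA tag. Results expressed as % Ctrl (lower = stronger binding) and as Kd from capture versus concentration curves.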
# KIT(D816V) = conditions: at 1 μM
# Procedure, shortened: as §1
# EPHA8 = conditions: at 1 μM
# Procedure, shortened: as §1
# EGFR(G719C) = conditions: at 1 μM
# Procedure, shortened: as §1
# EGFR(L858R) = conditions: at 1 μM
# Procedure, shortened: (§2)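 KINOMEscan competition assay. T7-phage kinase fusions (E. coli lysates) or DNA-tagged HEK-293 kinases; immobilized biotinylated ligand on beads; 1 h RT incubation; qPCR detection of bound kinase. Output: % Ctrl or Kd.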
# EPHB6 = conditions: at 1 μM
# Procedure, shortened: as §1
# FER = conditions: at 1 μM
# Procedure, shortened: as §1
# MUSK = conditions: at 1 μM
# Procedure, shortened: as §1
# [2] = system: ABL1(F317I)-nonphosphorylated; conditions: at 1 μM
# Procedure, shortened: as §1
# MET(Y1235D) = conditions: at 1 μM
# Procedure, shortened: as §1
# TXK = conditions: at 1 μM
# Procedure, shortened: as §1
# FLT4 = conditions: at 1 μM
# Procedure, shortened: as §1
# EGFR = conditions: at 1 μM
# Procedure, shortened: as §1
# SYK = conditions: at 1 μM
# Procedure, shortened: as §1
# CSK = conditions: at 1 μM
# Procedure, shortened: as §1
# EGFR(E746-A750del) = conditions: at 1 μM
# Procedure, shortened: as §1
# TRKA = conditions: at 1 μM
# Procedure, shortened: as §1
# RET(V804M) = conditions: at 1 μM
# Procedure, shortened: as §1
# [3] = system: TYK2(JH1domain-catalytic)
# Procedure, shortened: as §2
# ABL2 = conditions: at 1 μM
# Procedure, shortened: as §1
# FAK = conditions: at 1 μM
# Procedure, shortened: as §1
# EGFR(G719S) = conditions: at 1 μM
# Procedure, shortened: as §1
# PDGFRB = conditions: at 1 μM
# Procedure, shortened: as §1
# EGFR(L858R, T790M) = conditions: at 1 μM
# Procedure, shortened: as §2
# [4] = system: ABL1(F3171)-phosphorylated; conditions: at 1 μM
# Procedure, shortened: as §1
# TNK1 = conditions: at 1 μM
# Procedure, shortened: as §1
# FLT3(R834Q) = conditions: at 1 μM
# Procedure, shortened: as §1
# [5] = system: ABL1(Q252H)-nonphosphorylated; conditions: at 1 μM
# Procedure, shortened: as §1
# [6] = system: JAK2(JH1domain-catalytic)
# Procedure, shortened: as §2
# FES = conditions: at 1 μM
# Procedure, shortened: as §1
# AXL = conditions: at 1 μM
# Procedure, shortened: as §1
# MERTK = conditions: at 1 μM
# Procedure, shortened: as §1
# [7] = system: ABL1(Y253F)-phosphorylated; conditions: at 1 μM
# Procedure, shortened: as §1
# SRMS = conditions: at 1 μM
# Procedure, shortened: as §1
# EPHB1 = conditions: at 1 μM
# Procedure, shortened: as §1
# KIT(D816H) = conditions: at 1 μM
# Procedure, shortened: as §1
# KIT(V559D) = conditions: at 1 μM
# Procedure, shortened: as §1
# EPHA2 = conditions: at 1 μM
# Procedure, shortened: as §2
# [8] = system: ABL1(H396P)-nonphosphorylated; conditions: at 1 μM
# Procedure, shortened: as §1
# ERBB4 = conditions: at 1 μM
# Procedure, shortened: as §1
smiles,measurement,setting,value
"Cc1cc2c([nH]1)/C=C1\C(=O)Nc3c(Cl)cc(cc31)-c1cn(C)nc1COC[C@@H](C)N(C)C2=O [Cpd. 5, [3a(4)Z,10R]-20-chloro-6,9,10,15-tetramethyl-10,11,13,15-tetrahydro-2H-1,17-(ethanediylidene)pyrazolo[4,3-m]dipyrrolo[3,2-f:3′,4′-i][1,4]oxazacyclopentadecine-3,8(5H,9H)-dione]",% Ctrl,[1],70%
same,% Ctrl,KIT(D816V),100%
same,% Ctrl,EPHA8,77%
same,% Ctrl,EGFR(G719C),100%
same,% Ctrl,EGFR(L858R),90%
same,% Ctrl,EPHB6,92%
same,% Ctrl,FER,68%
same,% Ctrl,MUSK,100%
same,% Ctrl,[2],90%
same,% Ctrl,MET(Y1235D),100%
same,% Ctrl,TXK,94%
same,% Ctrl,FLT4,98%
same,% Ctrl,EGFR,96%
same,% Ctrl,SYK,90%
same,% Ctrl,CSK,96%
same,% Ctrl,EGFR(E746-A750del),95%
same,% Ctrl,TRKA,53%
same,% Ctrl,RET(V804M),90%
same,% Ctrl,"[3]; TYK2(JH1domain-catalytic), at 1 μM",69%
same,Kd,[3]; read-out: TYK2(JH1 domain-catalytic) Kd,> 10 µM
same,% Ctrl,ABL2,96%
same,% Ctrl,FAK,96%
same,% Ctrl,EGFR(G719S),98%
same,% Ctrl,PDGFRB,100%
same,% Ctrl,"EGFR(L858R, T790M)",64%
same,% Ctrl,[4],97%
same,% Ctrl,TNK1,91%
same,% Ctrl,FLT3(R834Q),98%
same,% Ctrl,[5],79%
same,% Ctrl,"[6]; JAK2(JH1domain-catalytic), at 1 μM",89%
same,Kd,[6]; read-out: JAK2(JH1 domain-catalytic) Kd,> 10 µM
same,% Ctrl,FES,89%
same,% Ctrl,AXL,86%
same,% Ctrl,MERTK,86%
same,% Ctrl,[7],73%
same,% Ctrl,SRMS,61%
same,% Ctrl,EPHB1,92%
same,% Ctrl,KIT(D816H),77%
same,% Ctrl,KIT(V559D),96%
same,% Ctrl,EPHA2,100%
same,% Ctrl,[8],98%
same,% Ctrl,ERBB4,97%

# From patent publication US20250074920A1, “MACROCYCLIC COMPOUNDS AND USE AS KINASE INHIBITORS” (BLOSSOMHILL THERAPEUTICS, INC., priority 2022, published 2025)
